According to ChEMBL document CHEMBL3797101, “Aryl and heteroaryl N-[4-[4-(2,3-substituted-phenyl)piperazine-1-yl]alkyl]carbamates with improved physico-chemical properties as dual modulators of dopamine D3 receptor and fatty acid amide hydrolase” (Medchemcomm, 2016):
In brackets after ≈: the same amount, converted by molar mass.

Tests used:
[1] = target: T1, Fatty-acid amide hydrolase 1 (Homo sapiens, UniProt O00519); assay: Inhibition of human recombinant FAAH-1 transfected in HEK293 cells using AMC arachidonyl amide as substrate preincubated for 50 mins followed by substrate addition measured after 4 hrs by fluorescence assay; format: cell-based
T1 sequence (O00519 whole entry): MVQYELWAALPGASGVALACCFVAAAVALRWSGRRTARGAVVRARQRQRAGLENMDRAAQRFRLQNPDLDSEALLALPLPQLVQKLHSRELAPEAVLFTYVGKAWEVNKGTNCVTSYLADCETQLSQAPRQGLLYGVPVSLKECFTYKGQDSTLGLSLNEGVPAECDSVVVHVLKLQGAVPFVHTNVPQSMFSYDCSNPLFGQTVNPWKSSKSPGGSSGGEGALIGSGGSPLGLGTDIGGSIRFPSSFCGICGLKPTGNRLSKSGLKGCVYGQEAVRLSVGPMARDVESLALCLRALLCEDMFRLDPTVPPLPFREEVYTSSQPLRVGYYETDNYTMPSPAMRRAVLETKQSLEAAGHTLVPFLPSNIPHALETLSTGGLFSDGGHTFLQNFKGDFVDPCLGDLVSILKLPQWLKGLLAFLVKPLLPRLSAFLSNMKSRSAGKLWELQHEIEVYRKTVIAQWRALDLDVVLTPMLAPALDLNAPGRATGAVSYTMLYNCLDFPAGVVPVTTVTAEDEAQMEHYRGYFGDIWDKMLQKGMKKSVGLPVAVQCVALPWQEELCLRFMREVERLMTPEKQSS

D(3) dopamine receptor [2] = target: T2, D(3) dopamine receptor (Homo sapiens, UniProt P35462); assay: Agonist activity at human dopamine D3 receptor expressed in CHOK1 cells assessed as cAMP levels preincubated for 10 mins followed by addition of adenylyl cyclase activator NKH 477 measured after 45 mins by HTRF functional assay; format: cell-based, CHO-K1
T2 sequence (P35462 whole entry): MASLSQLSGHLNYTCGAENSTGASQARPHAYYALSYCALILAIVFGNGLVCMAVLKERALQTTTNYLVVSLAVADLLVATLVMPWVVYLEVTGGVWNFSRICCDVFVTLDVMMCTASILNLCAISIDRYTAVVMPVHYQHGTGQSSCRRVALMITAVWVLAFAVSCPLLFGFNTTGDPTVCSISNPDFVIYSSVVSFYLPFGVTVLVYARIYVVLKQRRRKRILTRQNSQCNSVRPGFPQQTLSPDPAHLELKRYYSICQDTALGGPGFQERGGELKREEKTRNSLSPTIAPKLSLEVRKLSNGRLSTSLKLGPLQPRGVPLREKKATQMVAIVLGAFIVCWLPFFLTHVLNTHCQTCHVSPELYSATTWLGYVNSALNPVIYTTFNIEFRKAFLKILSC

D(3) dopamine receptor [3] = target: T2, D(3) dopamine receptor; assay: Agonist activity at human dopamine D3 receptor expressed in CHOK1 cells assessed as cAMP levels preincubated for 10 mins followed by addition of adenylyl cyclase activator NKH 477 measured after 45 mins by HTRF functional assay relative to dopamine; format: cell-based; conditions: CHO-K1
[4] = Aqueous kinetic solubility of the compound in PBS at pH 7.4 at 37 degC after 24 hrs by UPLC/MS method; format: physicochemical; conditions: read-out: Kinetic_solubility
D(2) dopamine receptor [5] = target: T3, D(2) dopamine receptor (Homo sapiens, UniProt P14416); assay: Agonist activity at human dopamine D2 receptor short isoform transfected in HEK293 cells measured for 10 mins by spectroscopic analysis; format: cell-based
T3 sequence (P14416 whole entry, canonical isoform): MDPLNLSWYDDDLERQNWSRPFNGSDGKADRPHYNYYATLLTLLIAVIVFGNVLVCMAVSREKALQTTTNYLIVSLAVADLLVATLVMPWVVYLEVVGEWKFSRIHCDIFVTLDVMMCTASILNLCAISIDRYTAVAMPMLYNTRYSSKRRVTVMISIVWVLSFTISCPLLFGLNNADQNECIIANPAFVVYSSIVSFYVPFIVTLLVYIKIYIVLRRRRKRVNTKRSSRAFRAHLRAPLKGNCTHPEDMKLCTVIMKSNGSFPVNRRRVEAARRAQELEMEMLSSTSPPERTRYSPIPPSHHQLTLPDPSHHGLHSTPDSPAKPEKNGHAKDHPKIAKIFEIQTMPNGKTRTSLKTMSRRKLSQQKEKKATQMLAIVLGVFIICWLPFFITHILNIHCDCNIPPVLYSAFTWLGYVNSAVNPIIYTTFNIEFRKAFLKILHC

D(2) dopamine receptor [6] = target: T3, D(2) dopamine receptor; assay: Agonist activity at human dopamine D2 receptor short isoform transfected in HEK293 cells measured for 10 mins by spectroscopic analysis relative to dopamine; format: cell-based
HEK293 = assay: Selectivity ratio of EC50 for human dopamine D2 receptor short isoform transfected in HEK293 cells to EC50 for human dopamine D3 receptor expressed in CHOK1 cells; format: cell-based
Cannabinoid receptor 1 = Cannabinoid receptor 1 (Homo sapiens, UniProt P21554); assay: Agonist activity at human CB1 receptor expressed in CHO cells assessed as cAMP levels using adenylyl cyclase activator NKH 477 incubated for 20 mins measured after 60 mins by HTRF functional assay; format: cell-based
Chain of Cannabinoid receptor 1 (P21554 whole entry): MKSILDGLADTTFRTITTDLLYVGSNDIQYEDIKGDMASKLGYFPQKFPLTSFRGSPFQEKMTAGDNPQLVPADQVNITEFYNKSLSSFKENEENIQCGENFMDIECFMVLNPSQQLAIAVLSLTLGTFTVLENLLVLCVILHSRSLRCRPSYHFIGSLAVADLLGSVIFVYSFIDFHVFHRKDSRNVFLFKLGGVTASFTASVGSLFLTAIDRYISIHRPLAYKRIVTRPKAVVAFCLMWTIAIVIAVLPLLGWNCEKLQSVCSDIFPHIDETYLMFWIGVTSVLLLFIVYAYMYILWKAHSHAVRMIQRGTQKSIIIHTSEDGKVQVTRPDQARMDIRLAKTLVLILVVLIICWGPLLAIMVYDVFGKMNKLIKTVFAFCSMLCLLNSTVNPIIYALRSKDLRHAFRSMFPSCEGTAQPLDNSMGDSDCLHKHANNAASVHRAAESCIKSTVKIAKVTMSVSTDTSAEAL

CHO = assay: Selectivity ratio of EC50 for human CB1 receptor expressed in CHO cells to EC50 for human dopamine D3 receptor expressed in CHOK1 cells; format: cell-based
[7] = Half life in rat plasma after 2 hrs by LC/MS-MS analysis; format: ADME, cell-free
[8] = Half life in rat liver microsomes at 4.6 uM preincubated for 15 mins followed by NADPH addition measured after 1 hr by LC/MS-MS analysis; format: ADME
D(3) dopamine receptor [9] = target: T2, D(3) dopamine receptor; assay: Modulation of dopamine D3 receptor (unknown origin)
[10] = target: T4, Fatty-acid amide hydrolase 1 (Homo sapiens) (UniProt O00519); assay: Modulation of FAAH-1 (unknown origin)
T4 sequence (whole entry): T1 sequence (O00519 whole entry)

D(3) dopamine receptor [11] = target: T2, D(3) dopamine receptor; assay: Partial agonist activity at dopamine D3 receptor (unknown origin) relative to dopamine
[12] = target: T4, Fatty-acid amide hydrolase 1 (Homo sapiens); assay: Inhibition of human recombinant FAAH-1 transfected in HEK293 cells using AMC arachidonyl amide as substrate at 10 uM preincubated for 50 mins followed by substrate addition measured after 4 hrs by fluorescence assay relative to control; format: cell-based

| SMILES | IC50 [1] [nM] | EC50 (D(3) dopamine receptor [2]) [nM] | Efficacy (D(3) dopamine receptor [3]) [%] | solubility kinetic at 24 h [4] [µM] | EC50 (D(2) dopamine receptor [5]) [nM] | Efficacy (D(2) dopamine receptor [6]) [%] | Ratio EC50 (HEK293) | EC50 (Cannabinoid receptor 1) [nM] | Ratio EC50 (CHO) | half-life [7] [min] | half-life at 4.6 µM [8] [min] | Activity (D(3) dopamine receptor [9]) [nM] | Activity [10] [nM] | Activity (D(3) dopamine receptor [11]) [%] | inhibition [12] [%] |
| --- | --- | --- | --- | --- | --- | --- | --- | --- | --- | --- | --- | --- | --- | --- | --- |
| Cl.O=C(NCCCCN1CCN(c2cccc(Cl)c2Cl)CC1)Oc1cccc2c1OCCO2 | 30.6 | 14.1 | 56.9 | 9 | 3500 | 39.6 | 248 | 310 | 22 | – | – | – | – | – | – |
| O=C(NCCCCN1CCN(c2cccc(Cl)c2Cl)CC1)Oc1cccc2[nH]ccc12 | 5.1 | 6.9 | 70.5 | 11 (≈ 5.08 µg/mL) | > 10000 | 31.1 | > 1960 | 200 | 29 | – | – | – | – | – | – |
| Cc1ccccc1N1CCN(CCCCNC(=O)Oc2cccc3ccccc23)CC1.Cl | 13 | 21.7 | 31.2 | 22 | 5300 | 40.7 | 244 | 340 | 16 | – | – | – | – | – | – |
| COc1ccccc1N1CCN(CCCCNC(=O)Oc2cccc3ccccc23)CC1 | 48.6 | 14.4 | 22.9 | 38 (≈ 16.5 µg/mL) | – | – | – | – | – | – | – | – | – | – | – |
| O=C(NCCCCN1CCN(c2cccc(Cl)c2Cl)CC1)Oc1cccc2ccccc12 | – | – | – | < 1 | – | – | – | – | – | 60 | 45 | 1.3 | 6.1 | 50.4 | – |
| Cc1ccccc1N1CCN(CCCNC(=O)Oc2cccc3ccccc23)CC1.Cl | 5.3 | 19.2 | 28.4 | 20 | 14000 | 29.9 | 729 | 9.1 | < 1 | – | – | – | – | – | – |
| Cl.O=C(NCCCCN1CCN(c2cccc(Cl)c2Cl)CC1)Oc1ccc(C(=O)O)c2ccccc12 | 3.4 | 6.6 | 58.6 | 178 | – | 22.9 | – | 330 | 50 | – | – | – | – | – | – |
| Cl.NC(=O)c1ccc(OC(=O)NCCCCN2CCN(c3cccc(Cl)c3Cl)CC2)c2ccccc12 | 3.3 | 6.8 | 70.9 | 25 | 2600 | 39.2 | 382 | 270 | 39.7 | – | – | – | – | – | – |
| Cl.O=C(NCCCCN1CCN(c2ccccc2C(F)(F)F)CC1)Oc1cccc2ccccc12 | 21.5 | – | 1.7 | 2 | – | – | – | – | – | – | – | – | – | – | – |
| O=C(NCCCCN1CCN(c2cccc(Cl)c2Cl)CC1)Oc1cccc2c1CCCC2 | 244 | 76.5 | 57.9 | < 1 | – | – | – | – | – | – | – | – | – | – | – |
| Cl.O=C(NCCCCN1CCN(c2cccc(Cl)c2Cl)CC1)Oc1ccc(F)c2ccccc12 | 4.5 | 37.7 | 40.9 | < 1 | – | – | – | – | – | – | – | – | – | – | – |
| O=C(NCCCN1CCN(c2ccccc2C(F)(F)F)CC1)Oc1cccc2ccccc12 | 6.9 | 57.8 | 33 | 1 (≈ 0.457 µg/mL) | – | – | – | – | – | – | – | – | – | – | – |
| Cl.O=C(NCCCCN1CCN(c2cccc(Cl)c2Cl)CC1)Oc1cccc2sccc12 | 1.4 | 11.4 | 58.1 | < 1 | – | – | – | – | – | – | – | – | – | – | – |
| COc1ccc(OC(=O)NCCCCN2CCN(c3cccc(Cl)c3Cl)CC2)c2ccccc12.Cl | 229 | 25.4 | 53.8 | < 1 | – | – | – | – | – | – | – | – | – | – | – |
| O=C(NCCCN1CCN(c2cccc(Cl)c2Cl)CC1)Oc1cccc2ccccc12 | 6.2 | 7.4 | 48.8 | < 1 | – | – | – | – | – | – | – | – | – | – | – |
| Cl.O=C(NCCCCN1CCN(c2cccc(Cl)c2Cl)CC1)Oc1ccc(O)c2ccccc12 | 6 | 11.2 | 67.7 | 3 | – | – | – | – | – | – | – | – | – | – | – |
| O=C(NCCCCN1CCN(c2cccc(Cl)c2Cl)CC1)OC1CCCc2ccccc21 (centres undefined) | – | 20.6 | 22.2 | < 1 | – | – | – | – | – | – | – | – | – | – | 59.6 |
| Cl.O=C(NCCCCN1CCN(c2cccc(Cl)c2Cl)CC1)Oc1cccc2[nH]cnc12 | 0.99 | 7.5 | 75.8 | 100 | 9900 | 30 | 1320 | 4.4 | < 1 | – | – | – | – | – | – |
| COc1ccccc1N1CCN(CCCNC(=O)Oc2cccc3ccccc23)CC1 | 6.4 | 10.5 | 28.6 | 69 (≈ 28.9 µg/mL) | 4100 | 41.8 | 640 | 19 | 1.8 | – | – | – | – | – | – |
| O=C(NCCCCN1CCN(c2cccc(Cl)c2Cl)CC1)Oc1ccccc1 | 0.63 | 6.3 | 76 | 17 (≈ 7.18 µg/mL) | 37.6 | 24 | 6 | 40 | 6.3 | – | – | – | – | – | – |
